In ChEMBL document CHEMBL3885861, “Open TG-GATES”:

Species on record: Rattus norvegicus
Experiment: Open TG-GATES - Regimen: Daily Repeat
Format: toxicity, organism-based, Sprague-Dawley
Design: regimen Daily Repeat, gender Male, age 6 weeks
Details: in vivo, po, 0 mg/kg, route gavage, dose level Control; for APTT / Bas / Eos / Fbg / Hb / Ht / Lym / MCH / MCHC / MCV / Mono / Neu / PT / Plat / RBC / Ret / WBC: tissue Blood; for KIDNEY_L / KIDNEY_R / KIDNEY_TOTAL: tissue Kidney; for LIVER: tissue Liver; for A/G / ALP / ALT / AST / BUN / CRE / Ca / Cl / DBIL / GLC / IP / K / LDH / Na / PL / RALB / TBIL / TC / TG / TP / gamma-GTP: tissue Plasma

## Cn1c(=O)c2[nH]cnc2n(C)c1=O.O [THEOPHYLLINE]
72 h, time 3 day
  TERMINAL_BW: 247 g
  APTT: 23.1 s
  Bas: 0%
  Eos: 0.8%
  Fbg: 314.4 mg/dL
  Hb: 13.2 g/dL
  Ht: 39.5%
  Lym: 79.4%
  MCH: 21.2 pg
  MCHC: 33.5%
  MCV: 63.2 fL
  Mono: 3.2%
  Neu: 15.2%
  PT: 15 s
  Plat: 114.7 x10_4/uL
  RBC: 625.4 x10_4/ul
  Ret: 7.3%
  WBC: 109 x10_2/uL
  KIDNEY_L: 1.1 g
  KIDNEY_R: 1.1 g
  KIDNEY_TOTAL: 2.2 g
  LIVER: 12.2 g
  A/G: 1.2
  ALP: 1800.8 IU/L
  ALT: 48.4 IU/L
  AST: 71.4 IU/L
  BUN: 17.6 mg/dL
  CRE: 0.2 mg/dL
  Ca: 10.7 mg/dL
  Cl: 105.8 meq/L
  DBIL: 0 mg/dL
  GLC: 203.8 mg/dL
  IP: 8.5 mg/dL
  K: 4.3 meq/L
  LDH: 183.6 IU/L
  Na: 141 meq/L
  PL: 156.6 mg/dL
  RALB: 3 g/dL
  TBIL: 0 mg/dL
  TC: 85 mg/dL
  TG: 96.2 mg/dL
  TP: 5.5 g/dL
  gamma-GTP: 1.6 IU/L
[…], time 7 day
  TERMINAL_BW: 278.6 g
  APTT: 21.8 s
  Bas: 0%
  Eos: 1%
  Fbg: 305.4 mg/dL
  Hb: 13.9 g/dL
  Ht: 40.5%
  Lym: 77.8%
  MCH: 20.9 pg
  MCHC: 34.2%
  MCV: 61.2 fL
  Mono: 2.8%
  Neu: 17.4%
  PT: 15.8 s
  Plat: 112 x10_4/uL
  RBC: 662 x10_4/ul
  Ret: 6%
  WBC: 113.8 x10_2/uL
  KIDNEY_L: 1.2 g
  KIDNEY_R: 1.3 g
  KIDNEY_TOTAL: 2.5 g
  LIVER: 12.9 g
  A/G: 1.2
  ALP: 1566.8 IU/L
  ALT: 43.8 IU/L
  AST: 80.4 IU/L
  BUN: 20 mg/dL
  CRE: 0.2 mg/dL
  Ca: 10.3 mg/dL
  Cl: 106.6 meq/L
  DBIL: 0 mg/dL
  GLC: 212.2 mg/dL
  IP: 7.5 mg/dL
  K: 4.6 meq/L
  LDH: 253.2 IU/L
  Na: 141.4 meq/L
  PL: 145.2 mg/dL
  RALB: 3 g/dL
  TBIL: 0 mg/dL
  TC: 69.4 mg/dL
  TG: 106.2 mg/dL
  TP: 5.6 g/dL
  gamma-GTP: 1.8 IU/L
[…], time 14 day
  TERMINAL_BW: 330.3 g
  APTT: 24.2 s
  Bas: 0%
  Eos: 0.8%
  Fbg: 324.6 mg/dL
  Hb: 14.5 g/dL
  Ht: 42.5%
  Lym: 79.2%
  MCH: 21 pg
  MCHC: 34.1%
  MCV: 61.5 fL
  Mono: 3%
  Neu: 15.2%
  PT: 15.6 s
  Plat: 114.6 x10_4/uL
  RBC: 691.8 x10_4/ul
  Ret: 4.4%
  WBC: 138.2 x10_2/uL
  KIDNEY_L: 1.3 g
  KIDNEY_R: 1.3 g
  KIDNEY_TOTAL: 2.7 g
  LIVER: 15.4 g
  A/G: 1.1
  ALP: 1434.6 IU/L
  ALT: 38.2 IU/L
  AST: 68.4 IU/L
  BUN: 18.6 mg/dL
  CRE: 0.2 mg/dL
  Ca: 10.3 mg/dL
  Cl: 107 meq/L
  DBIL: 0 mg/dL
  GLC: 188.2 mg/dL
  IP: 7.3 mg/dL
  K: 4.4 meq/L
  LDH: 184.4 IU/L
  Na: 142 meq/L
  PL: 149.2 mg/dL
  RALB: 3.1 g/dL
  TBIL: 0.004 mg/dL
  TC: 71.4 mg/dL
  TG: 135.4 mg/dL
  TP: 5.9 g/dL
  gamma-GTP: 2.6 IU/L
[…], time 28 day
  TERMINAL_BW: 378.5 g
  APTT: 24.9 s
  Bas: 0%
  Eos: 1%
  Fbg: 303 mg/dL
  Hb: 14.8 g/dL
  Ht: 42.6%
  Lym: 80.2%
  MCH: 18.9 pg
  MCHC: 34.8%
  MCV: 54.6 fL
  Mono: 1.6%
  Neu: 15%
  PT: 16.2 s
  Plat: 98.8 x10_4/uL
  RBC: 783 x10_4/ul
  Ret: 2.7%
  WBC: 113.3 x10_2/uL
  KIDNEY_L: 1.4 g
  KIDNEY_R: 1.4 g
  KIDNEY_TOTAL: 2.8 g
  LIVER: 15.4 g
  A/G: 1
  ALP: 1140.2 IU/L
  ALT: 38.6 IU/L
  AST: 64.8 IU/L
  BUN: 18.2 mg/dL
  CRE: 0.2 mg/dL
  Ca: 10.3 mg/dL
  Cl: 106.4 meq/L
  DBIL: 0 mg/dL
  GLC: 204.6 mg/dL
  IP: 6.5 mg/dL
  K: 4.1 meq/L
  LDH: 132.2 IU/L
  Na: 142.4 meq/L
  PL: 140.6 mg/dL
  RALB: 3.1 g/dL
  TBIL: 0.01 mg/dL
  TC: 65 mg/dL
  TG: 145.6 mg/dL
  TP: 6.1 g/dL
  gamma-GTP: 2.8 IU/L
